Data: patent US20260335282A1, “NOVEL 3-ARYLIDENE-2-INDOLINONE DERIVATIVES FOR THERAPEUTIC USE” (ISTANBUL UNIVERSITESI REKTORLUGU, priority 2022, published 2026)
Where “and” joins values, the source holds several entries; their conditions need not be identical. Equal entries are not always repeated. Where two headings read alike, the source gives them in different places.

How the values were obtained:
Assay type in all cases: cell-based, human
[1] = system: MIAPaCa-2 cells; assay: MTT cytotoxicity, pancreas cancer cells MIAPaCa-2; details: MTT
Text: (§1) The cytotoxicity, general tyrosine kinase inhibitory effects and cell death (apoptosis/necrosis) assays of 1-benzyl-3-(1H-indol-3-ylmethylidene)-1,3-dihydro-2H-indol-2-one derivatives (Formula 5) of the present invention are studied by the following methods. […] HUVEC (human umbilical vein endothelial cell), MCF-10F (human breast epithelial cell) and Beas2b (human lung bronchial epithelial cell) cell lines have been used as healthy control cells in MTT experiments.
(§2) Beas2b (human lung bronchiole epithelial cell) and HEK293 (renal tubule epithelium) cells used as normal cell lines were cultured in RPMI medium, and HUVEC (human umbilical cord endothelial cells) and MCF-10F (human breast epithelial cell) cells are cultured in DMEM medium containing 100 µg/ml penicillin/streptomycin. The cells, which covered 70% of the culture flask, are washed with phosphate buffer and then removed from the surface of the flask by application of trypsin-ethylenediamine tetraacetic acid (Trypsin-EDTA; 0.25%) solution, passaged, counted and seeded on appropriate plates before each experiment. Cells are treated with a total of 45 2-indolinone compounds (5) at concentrations of 0.1, 1, 5 and 10 μM. Stock compounds are prepared in 1 ml dimethylsulfoxide (DMSO) and 4 different dilutions were prepared with medium and performed to the cells. Control group cells are treated with DMSO at a similar concentration to the experimental groups.
(§3) MTT (3-(4,5-dimethylthiazol-2-yl)-2,5-diphenyl-2H-tetrazolium bromide) colorimetric assay provides quantitation of viable cells with ongoing mitochondrial activity in culture medium. According to the standard procedure in cell culture conditions, cells are maintained in RPMI-1640 and DMEM culture media containing 10% FBS and 1% penicillin/streptomycin. The trypan blue test is used for cell counts.
(§4) The effects of 45 2-indolinone compounds (5) on cell viability in all cancer cell lines are investigated by MTT assay. Cells are seeded in a 96-well flat bottom plate with 5000 cells in each well and 2-indolinone compounds (5) at concentrations of 0.1, 1, 5 and 10 μM are performed to the cells the next day. After 48 and/or 72 hours following treatment with 2-indolinone compounds, 50 μl of the supernatant is slowly discarded (as it was acid medium) and MTT at a concentration of 5 mg/ml is added to each well in a volume of 10 μl. After incubation for 4 hours, the formazan crystals formed in the wells are dissolved by adding 100 μl DMSO and the optical density is read at 570 nm test wavelength and 630 nm reference wavelength. Cell viability is expressed as % cell viability by comparing the absorbance of control and test wells. IC50 value is calculated from the dose-response curves prepared for each compound. In addition, the possible DMSO effect is eliminated by preparing negative control wells compatible with the amount of DMSO contained in the compounds. To understand the reaction of the compounds with MTT, cell-free (MTT+compounds) negative controls are prepared at the concentrations used (Mosmann, 1983). […] The absorbance values obtained are compared to the control and statistically evaluated by unpaired t-test using “Graphpad Prism 5.04” software. “P<0.05” is accepted as significant. When evaluating cytotoxic effects, the present inventors aim for the inventive compounds to be effective in cancer cells and ineffective in healthy cells. The inventive compounds have also been compared with sunitinib, one of the reference chemotherapy drugs currently used in treatment.

[2] = system: MDA-MB-231 cells; assay: MTT cytotoxicity, breast cancer cells MDA-MB-231; details: read-out: IC50, MDA-MB-231 (breast), MTT
Text: as §1, §2, §3, §4
(§5) Among the compounds of the present invention, those that killed cancer cells by at least 50% (p<0.05) are selected and tested whether a 10-fold concentration of the M concentration at the IC50 value is toxic to normal healthy cells.

[3] = system: A549 cells; assay: MTT cytotoxicity, lung cancer cells A549; details: no * mark (incubation time not specified)
Text: as §1, §2, §3, §4, §5

[4] = system: A498 cells; assay: MTT cytotoxicity, kidney cancer cells A498; details: MTT
Text: as §1, §2, §3, §4, §5

[5] = system: HUVEC cells; assay: MTT cytotoxicity, healthy cells HUVEC; details: for Selectivite Index, HUVEC (Table 2): HUVEC vs colon or pancreas cancer cells; for IC50: MTT
Text: as §1, §2, §3, §4, §5

[6] = system: HCT-116 cells; assay: MTT cytotoxicity, colon cancer cells HCT-116; details: no * mark (incubation time not specified)
Text: as §1, §2, §3, §4

[7] = system: CAKI-1 cells; assay: MTT cytotoxicity, kidney cancer cells CAKI-1
Text: as §1, §2, §3, §4, §5

[8] = system: MCF-7 cells; assay: MTT cytotoxicity, breast cancer cells MCF-7; details: MTT
Text: as §1, §2, §3, §4, §5

[9] = system: HT-29 cells; assay: MTT cytotoxicity, colon cancer cells HT-29; details: MTT, no * mark (incubation time not specified)
Text: as §1, §2, §3, §4

[10] = system: MCF-10F/Beas2b cells; assay: MTT cytotoxicity, healthy cells MCF-10F/Beas2b; details: for Selectivite Index, MCF-10F/Beas2b (Table 2): MCF-10F/Beas2b vs colon or pancreas cancer cells; for IC50: MTT
Text: as §1, §2, §3, §4, §5

[11] = no * mark (incubation time not specified)
[12] = no * mark (incubation time not given)
[13] = *: effective 72 hours after incubation

| SMILES | IC50 [1, 11] [µM] | IC50 [2, 12] [µM] | IC50 [3] [µM] | IC50 [4, 13] [µM] | Selectivite Index, HUVEC (Table 2) ([5]; cancer line not given) | IC50 [5, 11] [µM] | IC50 [6] [µM] | IC50 [7, 11] [µM] | IC50 [9] [µM] | Selectivite Index, MCF-10F/Beas2b (Table 2) ([10]; cancer line not given) | IC50 [10, 11] [µM] | IC50 [7, 13] [µM] | IC50 [8, 11] [µM] | IC50 [2, 13] [µM] | IC50 [4, 11] [µM] | also measured |
| --- | --- | --- | --- | --- | --- | --- | --- | --- | --- | --- | --- | --- | --- | --- | --- | --- |
| Cc1cccc(CN2C(=O)/C(=C\c3c[nH]c4ccccc34)c3ccccc32)c1 [50C] | 2.96 | 4.3 | 4.6 | 3.85 | 1.72 | 0.86 | 0.5 | 4.96 | 1.49 | 8.74 | 4.37 | – | – | – | – | IC50 [8, 13]: 4.15 µM |
| Cc1ccc(CN2C(=O)/C(=C\c3c[nH]c4ccccc34)c3cccc(Cl)c32)cc1 [28C] | > 10 | > 10 | > 10 | 0.6 | – | > 10 | > 10 | – | > 10 | – | – | 7.66 | > 10 | – | – | Selectivite Index (SI), HUVEC (Table 1) ([5]; HUVEC vs breast or kidney cancer cells, cancer line not given): > 15.6; Selectivite Index (SI), MCF-10F/Beas2b (Table 1) ([10]; MCF-10F/Beas2b vs breast or kidney cancer cells, cancer line not given): 1.5; IC50 [10, 13]: 1.78 µM |
| Cc1ccc(CN2C(=O)/C(=C\c3c[nH]c4ccccc34)c3cccc(F)c32)cc1 [35C] | 0.62 | > 10 | 5.93 | 3.09 | – | 1.62 | 0.23 | 4.5 | 1.01 | – | 3.23 | – | > 10 | – | – | – |
| O=C1/C(=C\c2c[nH]c3ccccc23)c2cc(OC(F)(F)F)ccc2N1Cc1ccc(Cl)cc1 [5C] | > 10 | – | 2.96 | 2.26 | 6.18 | 2.72 | 1.97 | – | 0.44 | 7.86 | 3.46 | 6.98 | – | 5.8 | – | IC50 [8, 13]: 3.84 µM |
| O=C1/C(=C\c2c[nH]c3ccccc23)c2cccc(F)c2N1Cc1cccc(F)c1 [30C] | 1.9 | 4.21 | 6.8 | – | – | – | 2.06 | – | > 10 | – | 1.9 | 7.7 | 4.31 | – | 6.57 | IC50 [5, 13]: 0.94 µM |
| Cc1ccc(CN2C(=O)/C(=C\c3c[nH]c4ccccc34)c3cc(Cl)ccc32)cc1 [Y22] | 0.49 | > 10 | > 10 | – | – | 2.34 | 2.34 | > 10 | > 10 | – | 1.1 | – | > 10 | – | > 10 | – |
| O=C1/C(=C\c2c[nH]c3ccccc23)c2cc(F)ccc2N1Cc1ccc(Cl)cc1 [12C] | 0.49 | – | 1.68 | 0.63 | – | 0.55 | 0.64 | 2.81 | 1.08 | – | 2.46 | – | – | 6.8 | – | IC50 [8, 13]: 2.63 µM; IC50 [10, 13]: 2.46 µM |
| O=C1/C(=C\c2c[nH]c3ccccc23)c2cccc(Cl)c2N1Cc1cccc(Cl)c1 [25C] | – | > 10 | > 10 | – | – | 1.81 | 2.9 | – | > 10 | – | 1.81 | 8.07 | 4.5 | – | 2.91 | IC50 [1, 13]: 3.23 µM |
| O=C1/C(=C\c2c[nH]c3ccccc23)c2cc(OC(F)(F)F)ccc2N1Cc1ccc(F)cc1 [3C] | – | 2.27 | 4.22 | 7.53 | – | 4.3 | 5.74 | 3.7 | 1.38 | – | 2.98 | – | 5.06 | – | – | IC50 [1, 13]: 0.95 µM |
| O=C1/C(=C\c2c[nH]c3ccccc23)c2cccc(F)c2N1Cc1ccc(F)cc1 [31C] | 0.73 | – | 3.64 | – | 3.23 and 1.72 | 1.26 | 0.39 | – | 3.95 | 11.33 and 6.05 | 4.42 | 9.14 | 7.1 | 9.09 | 2.85 | – |
| O=C1C(=Cc2c[nH]c3ccccc23)c2cc(Cl)ccc2N1Cc1cccc(Cl)c1 [18C] | – | 7.99 | 6.57 | – | – | 1.07 | 3.94 | 3.46 | 3.12 | – | 1.07 | – | 5.53 | – | 1.75 | IC50 [1, 13]: 1.54 µM |
| O=C1/C(=C\c2c[nH]c3ccccc23)c2cc(F)ccc2N1Cc1ccc(F)cc1 [10C] | 2.77 | – | 3.49 | – | – | 4.65 | 3.96 | – | 2.29 | – | 2.99 | 6.69 | > 10 | 8.13 | 3.81 | – |
| O=C1/C(=C\c2c[nH]c3ccccc23)c2cc(Cl)cc(Cl)c2N1Cc1ccccc1 [36C] | 0.46 | > 10 | 2.35 | 1.46 | 4.87 | 2.24 | 2.51 | – | > 10 | 7.83 | – | 4.01 | > 10 | – | – | IC50 [10, 13]: 3.6 µM |
